Converted amounts (≈) assume the structure as drawn.
Experiment: Intrinsic solubility of the compound in water

Q: Which solubility (water) does the source give for NC12CC3CC(CC(C3)C1)C2 [AMANTADINE] here?
A: 2120 µg/mL (≈ 14000 µM)

Q: Which solubility (water) does the source give for O=C1NC(=O)C(c2ccccc2)(c2ccccc2)N1 [PHENYTOIN] here?
A: 35 µg/mL (≈ 139 µM)

Q: With COc1ccc(Cc2nccc3cc(OC)c(OC)cc23)cc1OC [PAPAVERINE] as the compound, how does the solubility (water) read?
A: 46 µg/mL (≈ 136 µM)

Q: Which solubility (buffer) does the source give for CN(C)CCCN1c2ccccc2Sc2ccc(Cl)cc21 [CHLORPROMAZINE] here?
A: 2.7 µg/mL (≈ 8.47 µM)

Q: For Cn1cnc([N+](=O)[O-])c1Sc1ncnc2nc[nH]c12 [AZATHIOPRINE], which solubility (buffer) is on record?
A: 172 µg/mL (≈ 620 µM)

Q: For C[C@@H]1CN(c2c(F)c(N)c3c(=O)c(C(=O)O)cn(C4CC4)c3c2F)C[C@H](C)N1 [SPARFLOXACIN], which solubility (water) is on record?
A: 167 µg/mL (≈ 426 µM)

Q: For c1ccc2[nH]c(-c3cscn3)nc2c1 [THIABENDAZOLE], which solubility (water) is on record?
A: 66 µg/mL (≈ 328 µM)

Q: Which solubility (buffer) does the source give for CCN(CC)CCNC(=O)c1ccc(N)cc1 [PROCAINAMIDE] here?
A: Soluble

Q: For c1ccc(Cn2ccnc2)cc1 [BENZYLIMIDAZOLE], which solubility (water) is on record?
A: 874 µg/mL (≈ 5520 µM)

Q: For CCN1CCN(c2cc3c(cc2F)c(=O)c(C(=O)O)cn3C2CC2)CC1 [ENROFLOXACIN], which solubility (water) is on record?
A: 237 µg/mL (≈ 659 µM)

Q: With CCOC(=O)c1ccc(N)cc1 [BENZOCAINE] as the compound, how does the solubility (water) read?
A: 780 µg/mL (≈ 4720 µM)

Q: With CN[C@H]1CC[C@@H](c2ccc(Cl)c(Cl)c2)c2ccccc21 [SERTRALINE] as the compound, how does the solubility (buffer) read?
A: 4.5 µg/mL (≈ 14.7 µM)

Q: With C=CCN1CC[C@]23c4c5ccc(O)c4O[C@H]2C(=O)CC[C@@]3(O)[C@H]1C5 [NALOXONE] as the compound, how does the solubility (water) read?
A: 414 µg/mL (≈ 1260 µM)

Q: Which solubility (water) does the source give for Cc1nnc(NS(=O)(=O)c2ccc(N)cc2)s1 [SULFAMETHIZOLE] here?
A: 450 µg/mL (≈ 1660 µM)

Q: For CCCCNc1ccc(C(=O)OCCN(C)C)cc1 [TETRACAINE], which solubility (water) is on record?
A: 258 µg/mL (≈ 976 µM)

Q: For OCCN(CCO)c1nc(N2CCCCC2)c2nc(N(CCO)CCO)nc(N3CCCCC3)c2n1 [DIPYRIDAMOLE], which solubility (water) is on record?
A: 3.46 µg/mL (≈ 6.86 µM)

Q: For CN1CCN(C2=Nc3cc(Cl)ccc3Nc3ccccc32)CC1 [CLOZAPINE], which solubility (water) is on record?
A: 189 µg/mL (≈ 578 µM)

Q: With CCCCOc1cc(C(=O)NCCN(CC)CC)c2ccccc2n1 [DIBUCAINE] as the compound, how does the solubility (water) read?
A: 14 µg/mL (≈ 40.8 µM)

Q: With Cc1cccc(CN2CCN(C(c3ccccc3)c3ccc(Cl)cc3)CC2)c1 (centres undefined) [MECLIZINE] as the compound, how does the solubility (buffer) read?
A: 0.13 µg/mL (≈ 0.333 µM)

Q: For Nc1ccc(Br)cc1C(=O)O, which solubility (water) is on record?
A: 182 µg/mL (≈ 842 µM)

Q: With CCN(CC)CCOC(=O)c1ccc(N)cc1 [PROCAINE] as the compound, how does the solubility (water) read?
A: 4500 µg/mL (≈ 19000 µM)

Q: Which solubility (water) does the source give for C#CCN(C)[C@H](C)Cc1ccccc1 [SELEGILINE] here?
A: 575 µg/mL (≈ 3070 µM)

Q: For Clc1ccc(COC(Cn2ccnc2)c2ccc(Cl)cc2Cl)c(Cl)c1 (centres undefined) [MICONAZOLE], which solubility (water) is on record?
A: 3.5 µg/mL (≈ 8.41 µM)

Q: With O=C(O)c1ccccc1O [SALICYLIC ACID] as the compound, how does the solubility (buffer) read?
A: 1620 µg/mL (≈ 11700 µM)

Q: For CCc1nc(N)nc(N)c1-c1ccc(Cl)cc1 [PYRIMETHAMINE], which solubility (water) is on record?
A: 19.4 µg/mL (≈ 78 µM)

Q: With CC1=NS(=O)(=O)c2cc(Cl)ccc2N1 [DIAZOXIDE] as the compound, how does the solubility (water) read?
A: 100 µg/mL (≈ 434 µM)

Q: For CNCCC=C1c2ccccc2CCc2ccccc21 [NORTRIPTYLINE], which solubility (buffer) is on record?
A: 25 µg/mL (≈ 94.9 µM)

Q: For NS(=O)(=O)c1cc2c(cc1Cl)N=C(CSCc1ccccc1)NS2(=O)=O [BENZTHIAZIDE], which solubility (water) is on record?
A: 6.4 µg/mL (≈ 14.8 µM)

Q: Which solubility (water) does the source give for NCCc1c[nH]c2ccccc12 [TRYPTAMINE] here?
A: 80 µg/mL (≈ 499 µM)

Q: For Oc1ccc(I)cc1, which solubility (water) is on record?
A: 4250 µg/mL (≈ 19300 µM)

Q: Which solubility (water) does the source give for CCCCNC(=O)NS(=O)(=O)c1ccc(C)cc1 [TOLBUTAMIDE] here?
A: 93 µg/mL (≈ 344 µM)

Q: With NS(=O)(=O)c1cc2c(cc1C(F)(F)F)NCNS2(=O)=O [HYDROFLUMETHIAZIDE] as the compound, how does the solubility (water) read?
A: 360 µg/mL (≈ 1090 µM)

Q: For O=C1CN(/N=C/c2ccc([N+](=O)[O-])o2)C(=O)N1 [NITROFURANTOIN], which solubility (buffer) is on record?
A: 137 µg/mL (≈ 575 µM)

Q: With CCCN(CCC)S(=O)(=O)c1ccc(C(=O)O)cc1 [PROBENECID] as the compound, how does the solubility (water) read?
A: 3.9 µg/mL (≈ 13.7 µM)

Q: With COc1ccccc1OCCNCC(O)COc1cccc2[nH]c3ccccc3c12 (centres undefined) [CARVEDILOL] as the compound, how does the solubility (buffer) read?
A: 22.6 µg/mL (≈ 55.6 µM)

Q: Which solubility (water) does the source give for O=C(O)c1ccc(O)cc1 [PARABEN] here?
A: 4740 µg/mL (≈ 34300 µM)

Q: With Cc1ccc(C(=O)c2ccc(CC(=O)O)n2C)cc1 [TOLMETIN] as the compound, how does the solubility (water) read?
A: 21 µg/mL (≈ 81.6 µM)

Q: For CC(C)NCC(O)COc1cccc2[nH]ccc12 (centres undefined) [PINDOLOL], which solubility (water) is on record?
A: 40 µg/mL (≈ 161 µM)

Q: For O=C(O)c1cc(Br)c(O)cc1O, which solubility (water) is on record?
A: 559 µg/mL (≈ 2400 µM)

Q: Which solubility (water) does the source give for CNCCCN1c2ccccc2CCc2ccccc21 [DESIPRAMINE] here?
A: 63 µg/mL (≈ 236 µM)

Q: Which solubility (water) does the source give for CCCC(=O)Nc1ccc(OCC(O)CNC(C)C)c(C(C)=O)c1 (centres undefined) [ACEBUTOLOL] here?
A: 711 µg/mL (≈ 2110 µM)

Q: Which solubility (water) does the source give for CCn1cc(C(=O)O)c(=O)c2cc(F)c(N3CCNCC3)cc21 [NORFLOXACIN] here?
A: 559 µg/mL (≈ 1750 µM)

Q: For Nc1nc2nc[nH]c2c(=O)[nH]1 [GUANINE], which solubility (water) is on record?
A: 5.6 µg/mL (≈ 37.1 µM)

Q: With Cc1cccc(Nc2ccccc2C(=O)O)c1C [MEFENAMIC ACID] as the compound, how does the solubility (water) read?
A: 0.04 µg/mL (≈ 0.166 µM)

Q: With O=C(O)C(O)c1ccccc1Cl (centres undefined) as the compound, how does the solubility (buffer) read?
A: Soluble

Q: For CC(=O)CC(c1ccccc1)c1c(O)c2ccccc2oc1=O (centres undefined) [WARFARIN], which solubility (buffer) is on record?
A: 5.1 µg/mL (≈ 16.5 µM)

Q: With NC(N)=Nc1nc(CSCCC(N)=NS(N)(=O)=O)cs1 [FAMOTIDINE] as the compound, how does the solubility (buffer) read?
A: 760 µg/mL (≈ 2250 µM)

Q: With CN(C)CCC=C1c2ccccc2CCc2ccccc21 [AMITRIPTYLINE] as the compound, how does the solubility (water) read?
A: 7.8 µg/mL (≈ 28.1 µM)

Q: For O=C(O)c1cc(-c2ccc(F)cc2F)ccc1O [DIFLUNISAL], which solubility (water) is on record?
A: 0.29 µg/mL (≈ 1.16 µM)

Q: Which solubility (water) does the source give for CCn1cc(C(=O)O)c(=O)c2ccc(C)nc21 [NALIDIXIC ACID] here?
A: 57 µg/mL (≈ 245 µM)

Q: For C=CCc1ccccc1OCC(O)CNC(C)C (centres undefined) [ALPRENOLOL], which solubility (water) is on record?
A: 580 µg/mL (≈ 2330 µM)

Q: With CN1C(C(=O)Nc2ccccn2)=C(O)c2ccccc2S1(=O)=O [PIROXICAM] as the compound, how does the solubility (water) read?
A: 5.2 µg/mL (≈ 15.7 µM)

Q: With CC(C(=O)O)c1ccc2c(c1)[nH]c1ccc(Cl)cc12 (centres undefined) [CARPROFEN] as the compound, how does the solubility (water) read?
A: 5.5 µg/mL (≈ 20.1 µM)

Q: With CN(C)C(=O)C(CCN1CCC(O)(c2ccc(Cl)cc2)CC1)(c1ccccc1)c1ccccc1 [LOPERAMIDE] as the compound, how does the solubility (buffer) read?
A: 0.04 µg/mL (≈ 0.0838 µM)

Q: Which solubility (water) does the source give for O=c1n(CCCN2CCN(c3cccc(Cl)c3)CC2)nc2ccccn12 [TRAZODONE] here?
A: 127 µg/mL (≈ 342 µM)

Q: For CC(C(=O)O)c1ccc(-c2ccccc2)c(F)c1 (centres undefined) [FLURBIPROFEN], which solubility (water) is on record?
A: 17.2 µg/mL (≈ 70.4 µM)

Q: For CN1CCN(c2cc3c(cc2F)c(=O)c(C(=O)O)cn3-c2ccc(F)cc2)CC1 [DIFLOXACIN], which solubility (water) is on record?
A: 100 µg/mL (≈ 250 µM)

Q: With CC(C(=O)O)c1cccc(Oc2ccccc2)c1 (centres undefined) [FENOPROFEN] as the compound, how does the solubility (buffer) read?
A: 48 µg/mL (≈ 198 µM)

Q: Which solubility (buffer) does the source give for O=C(O)c1cc(/N=N/c2ccc(S(=O)(=O)Nc3ccccn3)cc2)ccc1O [SULFASALAZINE] here?
A: 0.29 µg/mL (≈ 0.728 µM)

Q: Which solubility (water) does the source give for CC(CN(C)C)CN1c2ccccc2CCc2ccccc21 (centres undefined) [TRIMIPRAMINE] here?
A: 4.8 µg/mL (≈ 16.3 µM)

Q: For CN(C)CCCN1c2ccccc2CCc2ccccc21 [IMIPRAMINE], which solubility (water) is on record?
A: 22 µg/mL (≈ 78.5 µM)

Q: For Nc1ccc(/N=N/c2ccccc2)c(N)n1 [PHENAZOPYRIDINE], which solubility (water) is on record?
A: 13.7 µg/mL (≈ 64.2 µM)

Q: Which solubility (buffer) does the source give for CNCCCC12CCC(c3ccccc31)c1ccccc12 [MAPROTILINE] here?
A: 5.6 µg/mL (≈ 20.2 µM)

Q: For O=C(O)c1ccccc1C(=O)O [PHTHALIC ACID], which solubility (buffer) is on record?
A: 4130 µg/mL (≈ 24900 µM)

Q: For Cc1ccc(Cl)c(Nc2ccccc2C(=O)O)c1Cl [MECLOFENAMIC ACID], which solubility (buffer) is on record?
A: 0.16 µg/mL (≈ 0.54 µM)

Q: With CCn1cc(C(=O)O)c(=O)c2cc(F)c(N3CCNC(C)C3)c(F)c21 (centres undefined) [LOMEFLOXACIN] as the compound, how does the solubility (water) read?
A: 1630 µg/mL (≈ 4640 µM)

Q: For O=c1[nH]cc(F)c(=O)[nH]1 [FLUOROURACIL], which solubility (buffer) is on record?
A: Soluble

Q: With CC1CCc2cc(F)cc3c(=O)c(C(=O)O)cn1c23 (centres undefined) [FLUMEQUINE] as the compound, how does the solubility (buffer) read?
A: 48 µg/mL (≈ 184 µM)

Q: For CC(=O)OCC1=C(C(=O)O)N2C(=O)[C@@H](NC(=O)Cc3cccs3)[C@H]2SC1 [CEPHALOTHIN], which solubility (water) is on record?
A: 457 µg/mL (≈ 1150 µM)

Q: With CCCNC(=O)NS(=O)(=O)c1ccc(Cl)cc1 [CHLORPROPAMIDE] as the compound, how does the solubility (water) read?
A: 156 µg/mL (≈ 564 µM)

Q: Which solubility (buffer) does the source give for CNC(=C[N+](=O)[O-])NCCSCc1ccc(CN(C)C)o1 [RANITIDINE] here?
A: 990 µg/mL (≈ 3150 µM)

Q: Which solubility (buffer) does the source give for C[C@@H]1CN(c2c(F)c(F)c3c(=O)c(C(=O)O)cn(C4CC4)c3c2F)C[C@H](C)N1 [ORBIFLOXACIN] here?
A: Soluble

Q: With O=C(O)c1cn(-c2ccc(F)cc2)c2cc(N3CCNCC3)c(F)cc2c1=O [SARAFLOXACIN] as the compound, how does the solubility (water) read?
A: 280 µg/mL (≈ 727 µM)

Q: For CN1CCN(c2c(F)cc3c(=O)c(C(=O)O)cn4c3c2OCN4C)CC1 [MARBOFLOXACIN], which solubility (buffer) is on record?
A: Soluble

From ChEMBL document CHEMBL1250533, “QSAR-based solubility model for drug-like compounds” (Bioorg Med Chem, 2010)
